Data from patent publication US10875855B2 (priority 2011, dated 2020).

Legend:
[1] = tested on: influenza A virus (A/PR/8/34); assay: MDCK cytopathic effect (CPE) cell protection assay, ATP detection; assay type: cell-based; settings: Influenza A virus, PR/8, MDCK, 72 h, Table 1; MDCK cells, A/PR/8/34, 72 hours, 50% cell protection, mean all; class symbol; read-out: MDCK IC50
[2] = tested on: influenza A virus (A/PR/8/34); assay: microbe, parasite or virus in culture; assay type: cell-based; settings: Influenza A virus, PR/8, Table 1, mean all, class symbol; for EC99: read-out: bDNA EC99; for EC50: viral RNA 50% of control wells, read-out: bDNA EC50

| Compound | IC50 [1] [nM] | EC99 [2] [µM] | EC50 [2] [nM] |
| --- | --- | --- | --- |
| CCOC(=O)CC[C@@H](Nc1nc(-c2c[nH]c3ncc(F)cc23)ncc1F)C(C)(C)C [Compound 23, (R)-ethyl 4-((5-fluoro-2-(5-fluoro-1H-pyrrolo[2,3-b]pyridin-3-yl)pyrimidin-4-yl)amino)-5,5-dimethylhexanoate] | 300 to 3300 | > 3.3 | 300 to 3300 |
| CC(C)(C)[C@@H](CO)Nc1nc(-c2c[nH]c3ncc(F)cc23)c(C#N)cc1F [Compound 24, (S)-5-fluoro-2-(5-fluoro-1H-pyrrolo[2,3-b]pyridin-3-yl)-6-((1-hydroxy-3,3-dimethylbutan-2-yl)amino)nicotinonitrile] | < 300 | < 0.3 | < 300 |
| CC(C)(C)[C@@H](CS(=O)(=O)O)Nc1nc(-c2c[nH]c3ncc(F)cc23)c(C#N)cc1F [Compound 25, (S)-2-(5-cyano-3-fluoro-6-(5-fluoro-1H-pyrrolo[2,3-b]pyridin-3-yl)pyridin-2-ylamino)-3,3-dimethylbutane-1-sulfonic acid] | < 300 | < 0.3 | < 300 |
| CC(C)(C)[C@@H](CO)Nc1nc(-c2c[nH]c3ncc(F)cc23)ncc1F [Compound 32, (S)-2-(5-fluoro-2-(5-fluoro-1H-pyrrolo[2,3-b]pyridin-3-yl)pyrimidin-4-ylamino)-3,3-dimethylbutane-1-ol] | < 300 | < 0.3 | < 300 |
| CCNS(=O)(=O)C[C@@H](Nc1nc(-c2c[nH]c3ncc(F)cc23)ncc1F)C(C)(C)C [Compound 33, (S)—N-Ethyl-2-(5-fluoro-2-(5-fluoro-1H-pyrrolo[2,3-b]pyridin-3-yl)pyrimidin-4-ylamino)-3,3-dimethylbutane-1-sulfonamide] | < 300 | < 0.3 | < 300 |
| CCCNS(=O)(=O)C[C@@H](Nc1nc(-c2c[nH]c3ncc(F)cc23)ncc1F)C(C)(C)C [Compound 34, (S)-2-(5-Fluoro-2-(5-fluoro-1H-pyrrolo[2,3-b]pyridin-3-yl)pyrimidin-4-ylamino)-3,3-dimethyl-N-propylbutane-1-sulfonamide] | < 300 | 0.3 to 3.3 | < 300 |
| COCCNS(=O)(=O)C[C@@H](Nc1nc(-c2c[nH]c3ncc(F)cc23)ncc1F)C(C)(C)C [Compound 35, (S)-2-(5-Fluoro-2-(5-fluoro-1H-pyrrolo[2,3-b]pyridin-3-yl)pyrimidin-4-ylamino)-N-(2-methoxyethyl)-3,3-dimethylbutane-1-sulfonamide] | < 300 | 0.3 to 3.3 | < 300 |
| CNS(=O)(=O)C[C@H](Nc1nc(-c2c[nH]c3ncc(F)cc23)ncc1F)C(C)(C)C [Compound 38, (R)-2-((5-fluoro-2-(5-fluoro-1H-pyrrolo[2,3-b]pyridin-3-yl)pyrimidin-4-yl)amino)-N,3,3-trimethylbutane-1-sulfonamide] | > 3300 | > 3.3 | > 3300 |
| CC(C)NS(=O)(=O)C[C@@H](Nc1nc(-c2c[nH]c3ncc(F)cc23)ncc1F)C(C)(C)C [Compound 39] | < 300 | 0.3 to 3.3 | < 300 |
| CC(C)(C)NS(=O)(=O)C[C@@H](Nc1nc(-c2c[nH]c3ncc(F)cc23)ncc1F)C(C)(C)C [Compound 40] | < 300 | 0.3 to 3.3 | < 300 |
| CC1([C@@H](CC(=O)O)Nc2nc(-c3c[nH]c4ncc(F)cc34)c(C#N)cc2F)CCCC1 [Compound 42, (R)-3-(5-cyano-3-fluoro-6-(5-fluoro-1H-pyrrolo[2,3-b]pyridin-3-yl)pyridin-2-ylamino)-3-(1-methylcyclopentyl)propanoic acid] | < 300 | < 0.3 | < 300 |
| CC(C)(C)[C@@H](CC(=O)O)Nc1nc(-c2c[nH]c3ncc(C(F)(F)F)cc23)ncc1F [Compound 43, (R)-3-((5-fluoro-2-(5-(trifluoromethyl)-1H-pyrrolo[2,3-b]pyridin-3-yl)pyrimidin-4-yl)amino)-4,4-dimethylpentanoic acid] | < 300 | < 0.3 | < 300 |
| CC(C)(C)[C@@H](CS(C)(=O)=O)Nc1nc(-c2c[nH]c3ncc(F)cc23)ncc1F [Compound 46, (S)—N-(3,3-dimethyl-1-(methylsulfonyl)butan-2-yl)-5-fluoro-2-(5-fluoro-1H-pyrrolo[2,3-b]pyridin-3-yl)pyrimidin-4-amine] | < 300 | > 3.3 | 300 to 3300 |
| CC(C)(C)[C@@H](CC(=O)O)Nc1ccnc(-c2c[nH]c3ncc(F)cc23)n1 [Compound 47, (R)-3-((2-(5-fluoro-1H-pyrrolo[2,3-b]pyridin-3-yl)pyrimidin-4-yl)amino)-4,4-dimethylpentanoic acid] | < 300 | 0.3 to 3.3 | < 300 |
| CC(C)(C)[C@@H](CC(=O)O)Nc1ccnc(-c2n[nH]c3ncc(F)cc23)n1 [Compound 48, (R)-3-((2-(5-fluoro-1H-pyrazolo[3,4-b]pyridin-3-yl)pyrimidin-4-yl)amino)-4,4-dimethylpentanoic acid] | < 300 | 0.3 to 3.3 | 300 to 3300 |
| CC(C)(C)[C@@H](CO)Nc1nc(-c2c[nH]c3ncc(Cl)cc23)ncc1F [Compound 49, (S)-2-((2-(5-chloro-1H-pyrrolo[2,3-b]pyridin-3-yl)-5-fluoropyrimidin-4-yl)amino)-3,3-dimethylbutan-1-ol] | < 300 | 0.3 to 3.3 | < 300 |
| CC(C)(C)C(Nc1nc(-c2c[nH]c3ncc(F)cc23)ncc1F)C1CC1C(=O)O (stereo not drawn) [Compound 50, 2-(1-((5-fluoro-2-(5-fluoro-1H-pyrrolo[2,3-b]pyridin-3-yl)pyrimidin-4-yl)amino)-2,2-dimethylpropyl)cyclopropanecarboxylic acid] | < 300 | 0.3 to 3.3 | < 300 |
| CC(C)(C)N(CC(=O)O)Nc1nc(-c2c[nH]c3ncc(F)cc23)ncc1F [Compound 53, 2-(1-(tert-butyl)-2-(5-fluoro-2-(5-fluoro-1H-pyrrolo[2,3-b]pyridin-3-yl)pyrimidin-4-yl)hydrazinyl)acetic acid] | < 300 | 0.3 to 3.3 | < 300 |
| CC(C)(C)N(CC(=O)O)Nc1nc(-c2c[nH]c3ncc(C(F)(F)F)cc23)ncc1F [Compound 54, 2-(1-(tert-butyl)-2-(5-fluoro-2-(5-(trifluoromethyl)-1H-pyrrolo[2,3-b]pyridin-3-yl)pyrimidin-4-yl)hydrazinyl)acetic acid] | < 300 | 0.3 to 3.3 | < 300 |
| CC(C)(C)N(CC(=O)O)Nc1nc(-c2c[nH]c3ncc(Cl)cc23)ncc1F [Compound 56, 2-(1-(tert-butyl)-2-(2-(5-chloro-1H-pyrrolo[2,3-b]pyridin-3-yl)-5-fluoropyrimidin-4-yl)hydrazinyl)acetic acid] | < 300 | < 0.3 | < 300 |
| CC(C)(C)[C@@H](CS(=O)(=O)NCC(F)F)Nc1nc(-c2c[nH]c3ncc(F)cc23)ncc1F [Compound 57, (S)—N-(2,2-difluoroethyl)-2-(5-fluoro-2-(5-fluoro-H-pyrrolo[2,3-b]pyridin-3-yl)pyrimidin-4-ylamino)-3,3-dimethylbutane-1-sulfonamide] | < 300 | < 0.3 | < 300 |
